{
  "source": "patent US7417049B2",
  "about": "(priority 2002, dated 2008)",
  "target": "α7 nAChR Subtype (Rattus norvegicus, UniProt Q05941)",
  "sequence (Q05941 23-502 limits assumed)": "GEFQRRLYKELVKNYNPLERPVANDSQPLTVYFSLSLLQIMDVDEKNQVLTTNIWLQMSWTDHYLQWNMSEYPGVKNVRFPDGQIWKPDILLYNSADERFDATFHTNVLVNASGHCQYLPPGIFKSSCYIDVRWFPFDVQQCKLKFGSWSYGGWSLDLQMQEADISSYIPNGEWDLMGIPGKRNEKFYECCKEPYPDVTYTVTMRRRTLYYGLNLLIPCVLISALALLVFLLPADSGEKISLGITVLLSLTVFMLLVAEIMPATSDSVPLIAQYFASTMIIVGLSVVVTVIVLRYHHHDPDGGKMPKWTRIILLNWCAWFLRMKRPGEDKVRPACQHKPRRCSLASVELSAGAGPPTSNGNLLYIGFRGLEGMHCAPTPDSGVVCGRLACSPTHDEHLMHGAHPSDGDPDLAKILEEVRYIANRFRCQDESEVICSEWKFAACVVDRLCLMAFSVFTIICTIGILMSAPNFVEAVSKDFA",
  "type": "binding",
  "settings": "read-out: KD of radioligand",
  "data": [
    {"substance": "[^125I]α-Bungarotoxin [[^125I]-α-BTX]", "values": [
      {"measurement": "Kd", "value": 1.67, "unit": "nM"}
    ]}
  ]
}
